Target: Bromodomain-containing protein 4 (Homo sapiens, UniProt O60885)
Assay: Assays were performed as described previously with minor modifications from the manufacturer's protocol (PerkinElmer, USA). All reagents were diluted in 50 mM HEPES, 100 mM NaCl, 0.1% BSA, pH 7.4 supplemented with 0.05% CHAPS and allowed to equilibrate to room temperature prior to addition to plates. […] Plates were sealed and incubated for a further 30 minutes, before the addition of 4 μl of streptavidin-coated donor beads (25 μg/ml) and 4 μl nickel chelate acceptor beads (25 μg/ml) under low light conditions. Plates were foil-sealed to protect from light, incubated at room temperature for 60 minutes and read on a PHERAstar FS plate reader (BMG Labtech, Germany) using an AlphaScreen 680 excitation/570 emission filter set. IC50 values were calculated in Prism 5 (GraphPad Software, USA) after normalization against corresponding DMSO controls and are given as the final concentration of compound in the 20 μl reaction volume.

## Cc1sc2c(c1C)C(c1ccc(C#N)cc1)=N[C@@H](CC(=O)OC(C)(C)C)c1nnc(C)n1-2
  IC50: 97 nM
